In general, inhibition refers to the relative decrease from the control value, in per cent.

Experiment [1] has as its target T1, human neurokinin 1 (NK1) receptor (Homo sapiens, UniProt P25103).
T1 construct: expressed in transfected cells; host or cells: CHO (Chinese hamster ovary) cells, membranes
Kind of experiment: Neurokinin receptor binding assay, human NK1. As to conditions: CHO cell membranes, [3H]-Substance P, read-out: % Inhibition of NK1 at a dose of 1 μM. How it is done: (§1) Chinese Hamster ovary (CHO) cells transfected with the coding regions for the human neurokinin 1 (NK1) of the human neurokinin 2 (NK2) receptors are grown in Dulbecco's minimal essential medium supplemented with 10% fetal calf serum, 0.1 mM non-essential amino acids, 2 mM glutamine, 100 units/ml of penicillin and streptomycin, and 0.8 mg of G418/ml at 37° C. in a humidified atmosphere containing 5% CO2.
(§2) Cells are detached from T-175 flasks with a sterile solution containing 5 mM EDTA in phosphate buffered saline. Cells are harvested by centrifugation and washed in RPMI media at […] for 5 minutes. The pellet is resuspended in Tris-HCl (pH7.4) containing 1 uM phsphoramidon and 4 ug/ml of chymostatin at a cell density of 30×10^6 cells/ml. The suspension is then homogenized in a Brinkman Polytron (setting 5) for 30-45 seconds. The homogenate is centrifuged at 800 x g for 5 min at 4° C. to collect unbroken cells and nuclei. The supernatant is centrifuged in a Sorvall RC5C at 19,000 rpm ([…]) for 30 min at 4° C. The pellet is resuspended, an aliquot is removed for a protein determination (BCA) and washed again. The resulting pellet is stored at -80° C.
(§3) To assay receptor binding, 50 μl of [^3 H]-Substance P (9-Sar, 11-Met) (specific activity 41 Ci/mmol) (Dupont-NEN) (0.8 nM for the NK-1 assay) or [^3 H]-Neurokinin A (specific activity 114 Ci/ mmole) (Zenca) (1.0 nM for the NK-2 assay) is added to tubes containing buffer (50 mM Tris-HCl (pH 7.4) with 1 mM MnCl2 and 0.2% Bovine Serum Albumin) and either DMSO or test compound. Binding is initiated by the addition of 100 μl of membrane (10-20 μg) containing the human NK-1 or NK-2 receptor in a final volume of 200 μl. After 40 minutes at room temperature, the reaction is stopped by rapid filtration onto Whatman GF/C filters which have been presoaked in 0.3% polyethylenimine. Filters are washed 2 times with 3 ml of 50 mM Tris-HCl (pH7.4). Filters are added to 6 mls of Ready-Safe liquid scintillation cocktail and quantified by liquid scintillation spectrometry in a LKB 1219 RackBeta counter. Non-specific binding is determined by the addition of either 1 μM of CP-99994 (NK-1) or 1 μM SR-48968 (NK-2) (both synthesized by the chemistry department of Schering-Plough Research Institute). IC50 values are determined from competition binding curves and Ki values are determined according to Cheng and Prusoff using the experimentally determined value of 0.8 nM for the NK-1 receptor and 2.4 nM for the NK-2 receptor.
(§4) % Inhibition is the difference between the percent of maximum specific binding (MSB) and 100%. The percent of MSB is defined by the following equation, wherein "dpm" is disintegrations per minute: [formula]

The target in experiment [2] is T2, human neurokinin 2 (NK2) receptor (Homo sapiens, UniProt P21452).
T2 construct: expressed in transfected cells; host or cells: CHO (Chinese hamster ovary) cells, membranes
T2 sequence (P21452 1-398): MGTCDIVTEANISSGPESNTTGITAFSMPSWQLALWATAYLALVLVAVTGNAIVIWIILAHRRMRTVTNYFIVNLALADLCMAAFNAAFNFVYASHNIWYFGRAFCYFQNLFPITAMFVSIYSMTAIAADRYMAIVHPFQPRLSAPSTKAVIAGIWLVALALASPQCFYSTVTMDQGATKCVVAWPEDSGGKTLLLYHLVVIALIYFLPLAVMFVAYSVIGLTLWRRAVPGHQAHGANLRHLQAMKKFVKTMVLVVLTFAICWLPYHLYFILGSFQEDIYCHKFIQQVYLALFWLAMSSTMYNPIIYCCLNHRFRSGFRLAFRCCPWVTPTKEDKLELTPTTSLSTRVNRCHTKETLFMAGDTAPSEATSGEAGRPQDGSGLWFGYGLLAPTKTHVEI
Kind of experiment: Neurokinin receptor binding assay, human NK2. The settings on record: CHO cell membranes, [3H]-Neurokinin A, read-out: % Inhibition of NK2 at a dose of 1 μM. How it is done:
as §1, §2, §3, §4

T1 sequence (P25103 whole entry): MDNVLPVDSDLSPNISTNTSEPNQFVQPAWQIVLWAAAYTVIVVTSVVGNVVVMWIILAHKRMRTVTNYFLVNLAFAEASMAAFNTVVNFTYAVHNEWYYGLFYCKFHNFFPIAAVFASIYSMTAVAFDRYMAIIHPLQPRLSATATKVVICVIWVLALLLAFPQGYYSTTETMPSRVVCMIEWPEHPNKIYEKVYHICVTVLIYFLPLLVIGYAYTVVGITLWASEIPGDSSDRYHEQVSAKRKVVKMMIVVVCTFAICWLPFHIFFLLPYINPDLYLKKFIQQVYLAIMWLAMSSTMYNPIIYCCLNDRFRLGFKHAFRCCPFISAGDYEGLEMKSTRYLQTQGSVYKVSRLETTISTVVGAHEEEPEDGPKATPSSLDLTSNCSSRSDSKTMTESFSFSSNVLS

For `CN(C[C@H](c1ccc(Cl)c(Cl)c1)[C@@H](O)CN1CCC(O)(c2ccccc2)CC1)C(=O)c1ccccc1` (relative stereo) [Example 2], the inhibition at 1 µM amounted to 81% in experiment [1] and 88% in experiment [2].

Regarding `CN(C[C@H](c1ccc(Cl)c(Cl)c1)[C@@H](CN1CCC(O)(c2ccccc2)CC1)OCc1cc(C(F)(F)F)cc(C(F)(F)F)c1)C(=O)c1ccccc1` (relative stereo) [Example 19], the inhibition at 1 µM in experiment [1] was 78%; in experiment [2], 18%.

Consider `COC(CN1CCC(O)(c2ccccc2)CC1)C(CNC(=O)OC(C)(C)C)c1ccc(Cl)c(Cl)c1` (stereo not shown) [Example 12], for which the inhibition at 1 µM in experiment [1] came out at 9%; in experiment [2] it was 68%.

Consider `CN(CC(C(=O)CN1CCC(O)(c2ccccc2)CC1)c1ccc(Cl)c(Cl)c1)C(=O)c1ccccc1` (stereo not shown) [Example 16], for which the inhibition at 1 µM amounted to 23% in experiment [1] and 96% in experiment [2].

With `CON=C(CN1CCC(O)(c2ccccc2)CC1)C(CN(C)C(=O)c1ccccc1)c1ccc(Cl)c(Cl)c1` (stereo not shown) [Example 18], the inhibition at 1 µM in experiment [1] is 1%; in experiment [2] it was 15%.

(Values after patent US5789422A, “Substituted arylalkylamines as neurokinin antagonists” (Schering Corporation, priority 1996, dated 1998).)
